Measured values: ChEMBL document CHEMBL5620389, “Development of diphenylmethylpiperazine hybrids of chloroquinoline and triazolopyrimidine using Petasis reaction as new cysteine proteases inhibitors for malaria therapeutics” (Eur J Med Chem, 2023)
pIC50: −log10 of the molar value. Calls of active or inactive are those of the source.

What was measured:
Plasmodium falciparum [1] = test: Antimalarial activity against chloroquine-sensitive Plasmodium falciparum 3D7 infected in RBC incubated for 50 hrs by SYBR green I staining based microplate reader assay; assay type: functional, organism-based; settings: 3D7, Erythrocyte
Erythrocyte = test: Hemolytic activity in human RBC at 100 uM incubated for 2 hrs by microplate reader analysis; assay type: toxicity, cell-based
Plasmodium falciparum [2] = test: Antimalarial activity against chloroquine-resistant Plasmodium falciparum W2 infected in RBC incubated for 50 hrs by SYBR green I staining based microplate reader assay; assay type: functional, organism-based; settings: W2, Erythrocyte
[3] = Cytotoxicity against human […] cells incubated for 24 hrs by MTT assay; assay type: toxicity, cell-based
Plasmodium falciparum [4] = test: Antiplasmodial activity against synchronized Plasmodium falciparum 3D7 assessed as arrest in parasite development at trophozoite stage at 3 times IC50 after 24 to 48 hrs by Giesma-staining based light microscopic analysis; assay type: functional, organism-based; settings: time 24-48 hrs
Falcipain-3 = biological target: T1, Falcipain-3 (Plasmodium falciparum 3D7, UniProt Q8IIL0); test: Inhibition of Plasmodium falciparum FP3 using Z-Leu-Arg-AMC as substrate preincubated for 30 mins followed by substrate addition and measured for 30 mins by spectrofluorometer analysis
T1 sequence (Q8IIL0 whole entry): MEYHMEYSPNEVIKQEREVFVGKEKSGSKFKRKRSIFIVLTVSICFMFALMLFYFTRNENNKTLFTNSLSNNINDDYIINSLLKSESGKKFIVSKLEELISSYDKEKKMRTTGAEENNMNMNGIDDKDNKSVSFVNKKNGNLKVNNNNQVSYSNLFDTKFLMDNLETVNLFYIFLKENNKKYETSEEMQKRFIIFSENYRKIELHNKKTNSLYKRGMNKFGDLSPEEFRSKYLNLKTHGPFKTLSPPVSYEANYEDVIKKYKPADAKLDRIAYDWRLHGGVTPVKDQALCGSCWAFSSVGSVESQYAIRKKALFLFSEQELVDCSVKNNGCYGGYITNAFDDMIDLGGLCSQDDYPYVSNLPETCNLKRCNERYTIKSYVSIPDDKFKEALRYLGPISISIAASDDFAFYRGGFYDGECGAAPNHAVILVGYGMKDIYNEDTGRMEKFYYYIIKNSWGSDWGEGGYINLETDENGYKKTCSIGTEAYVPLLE

Falcipain 2 = biological target: T2, Falcipain 2 (Plasmodium falciparum, UniProt Q9N6S8); test: Inhibition of Plasmodium falciparum FP2 using Z-Leu-Arg-AMC as substrate preincubated for 30 mins followed by substrate addition and measured for 30 mins by spectrofluorometer analysis
T2 sequence (Q9N6S8 whole entry): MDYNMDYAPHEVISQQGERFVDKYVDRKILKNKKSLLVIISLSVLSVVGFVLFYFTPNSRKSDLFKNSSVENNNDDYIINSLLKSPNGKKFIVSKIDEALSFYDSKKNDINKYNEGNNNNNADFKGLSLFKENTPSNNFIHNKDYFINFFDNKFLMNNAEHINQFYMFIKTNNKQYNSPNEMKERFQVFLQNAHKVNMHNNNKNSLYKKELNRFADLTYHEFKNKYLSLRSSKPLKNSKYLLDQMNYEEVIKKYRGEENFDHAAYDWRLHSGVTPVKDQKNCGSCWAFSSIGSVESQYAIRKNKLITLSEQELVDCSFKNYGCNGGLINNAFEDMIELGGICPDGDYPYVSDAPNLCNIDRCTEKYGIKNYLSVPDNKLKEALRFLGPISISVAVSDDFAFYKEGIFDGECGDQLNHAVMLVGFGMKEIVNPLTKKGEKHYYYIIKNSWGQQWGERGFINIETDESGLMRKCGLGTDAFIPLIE

[5] = Cytotoxicity against African green monkey Vero cells at 1000 uM; assay type: toxicity, cell-based; settings: chlorocebus sabaeus
Plasmodium yoelii [6] = test: Antimalarial activity against Plasmodium yoelii N67 infected in Swiss mouse assessed as parasitemia suppression at 12.5 mg/kg/day, po measured on day 4; assay type: functional; settings: time 4 day
Plasmodium falciparum [7] = test: Antimalarial activity against chloroquine-sensitive Plasmodium falciparum K1 incubated for 72 hrs by MSF assay; assay type: functional, organism-based; settings: K1, 72 h
Plasmodium falciparum [8] = test: Antimalarial activity against chloroquine-sensitive Plasmodium falciparum 3D7 incubated for 72 hrs by MSF assay; assay type: functional, organism-based; settings: 3D7, 72 h
Plasmodium yoelii [9] = test: Antimalarial activity against Plasmodium yoelii N67 infected in Swiss mouse assessed as curative rate at 12.5 mg/kg/day, po measured on day 28; assay type: functional; settings: time 28 day
Plasmodium falciparum [10] = test: Antimalarial activity against Plasmodium falciparum K1; assay type: functional, organism-based
Plasmodium falciparum [11] = test: Antimalarial activity against Plasmodium falciparum 3D7; assay type: functional, organism-based

SMILES	pIC50 (Plasmodium falciparum [1])	Activity (Erythrocyte)	pIC50 (Plasmodium falciparum [2])	IC50 at 24 h [3]	Activity (Plasmodium falciparum [4])	pIC50 (Falcipain-3)	pIC50 (Falcipain 2)	Activity [5]	also measured
Cc1cc(N2CCN(C(c3ccc(F)c(F)c3)c3ccccc3O)CC2)n2ncnc2n1 (stereo not drawn)	5.16	Toxic	–	–	–	–	–	–	–
COc1cccc(C(c2ccc(F)c(F)c2)N2CCN(c3ccnc4cc(Cl)ccc34)CC2)c1O (stereo not drawn)	5.88	Toxic	5.85	17.9 µM	Active	4.97	4.98	Non-Toxic	–
Oc1ccccc1C(c1ccc(OC(F)(F)F)cc1)N1CCN(c2ccnc3cc(Cl)ccc23)CC1 (stereo not drawn)	6.13	Toxic	5.91	104 µM	Active	5.33	5.32	Non-Toxic	–
COc1cccc(C(c2ccc(C(F)(F)F)cc2)N2CCN(c3ccnc4cc(Cl)ccc34)CC2)c1O (stereo not drawn)	6.28	Toxic	5.48	32.9 µM	Active	5.21	5.27	Non-Toxic	–
CCN1CCN(CC(CC(C)C)Nc2ccnc3cc(Cl)ccc23)CC1 (stereo not drawn)	–	–	–	–	–	–	–	–	Activity (Plasmodium yoelii [6]): 100%; pIC50 (Plasmodium falciparum [7]): 7.01; pIC50 (Plasmodium falciparum [8]): 7.24; Activity (Plasmodium yoelii [9]): 100%
Oc1ccccc1C(c1ccc(F)c(F)c1)N1CCN(c2ccnc3cc(Cl)ccc23)CC1 (stereo not drawn)	6.13	Toxic	5.98	188 µM	Active	5.31	5.41	Non-Toxic	–
COc1ccc(C(c2cccc(OC)c2O)N2CCN(c3ccnc4cc(Cl)ccc34)CC2)cc1 (stereo not drawn)	5.96	Toxic	5.59	214 µM	–	5.11	5.15	Non-Toxic	–
COc1cccc(C(c2ccc(OC(F)(F)F)cc2)N2CCN(c3ccnc4cc(Cl)ccc34)CC2)c1O (stereo not drawn)	5.83	Toxic	–	–	–	–	–	–	–
CC(C)(C)NCc1ccc(Nc2ccnc3cc(Cl)ccc23)cc1O [GSK-369796]	–	–	–	–	–	–	–	–	pIC50 (Plasmodium falciparum [10]): 7.89; pIC50 (Plasmodium falciparum [11]): 7.96
COc1ccc(C(c2ccccc2O)N2CCN(c3ccnc4cc(Cl)ccc34)CC2)cc1 (stereo not drawn)	5.79	Toxic	–	–	–	–	–	–	–
COc1cccc(C(c2ccc(Cl)c(Cl)c2)N2CCN(c3ccnc4cc(Cl)ccc34)CC2)c1O (stereo not drawn)	5.97	Toxic	6.18	172 µM	Active	5.23	5.34	Non-Toxic	–
Cc1ccc(C(c2ccccc2O)N2CCN(c3cc(C)nc4ncnn34)CC2)cc1 (stereo not drawn)	< 4.60	Toxic	–	–	–	–	–	–	–
Cc1ccc(C(c2ccccc2O)N2CCN(c3ccnc4cc(Cl)ccc34)CC2)cc1 (stereo not drawn)	5.97	Toxic	5.89	134 µM	Active	5.17	5.21	Non-Toxic	–
COc1cccc(C(c2ccc(F)c(Cl)c2)N2CCN(c3ccnc4cc(Cl)ccc34)CC2)c1O (stereo not drawn)	5.84	Toxic	–	–	–	–	–	–	–
Oc1ccccc1C(c1ccc(F)c(Cl)c1)N1CCN(c2ccnc3cc(Cl)ccc23)CC1 (stereo not drawn)	5.92	Toxic	6.34	139 µM	Active	5.00	5.06	Non-Toxic	–
Oc1ccccc1C(c1ccc(C(F)(F)F)cc1)N1CCN(c2ccnc3cc(Cl)ccc23)CC1 (stereo not drawn)	5.85	Toxic	–	–	–	–	–	–	–
COc1ccc(C(c2ccccc2O)N2CCN(c3cc(C)nc4ncnn34)CC2)cc1 (stereo not drawn)	< 4.60	Toxic	–	–	–	–	–	–	–
Cc1cc(N2CCN(C(c3ccc(Cl)c(Cl)c3)c3ccccc3O)CC2)n2ncnc2n1 (stereo not drawn)	5.48	Toxic	–	–	–	–	–	–	–
Cc1cc(N2CCN(C(c3ccc(F)cc3)c3ccccc3O)CC2)n2ncnc2n1 (stereo not drawn)	4.46	Toxic	–	–	–	–	–	–	–
COc1cccc(C(c2ccc(F)cc2)N2CCN(c3ccnc4cc(Cl)ccc34)CC2)c1O (stereo not drawn)	5.81	Toxic	–	–	–	–	–	–	–
CCN(CC)CCCC(C)Nc1ccnc2cc(Cl)ccc12 (stereo not drawn) [CHLOROQUINE]	–	Toxic	–	–	–	–	–	–	–
COc1cccc(C(c2ccc(C)cc2)N2CCN(c3ccnc4cc(Cl)ccc34)CC2)c1O (stereo not drawn)	5.78	Toxic	–	–	Active	–	–	–	–
